Experimental data as given in ChEMBL document CHEMBL2007661, “Compounds: GSK PKIS; Assays: UNC Frye lab” (2012).
“And” between values parts separate entries of the source, which are not always exact repeats. Identical values can stand only once.

Tests used:
[1] = target: T1, Inhibitor of nuclear factor kappa-B kinase subunit alpha (Homo sapiens) (UniProt O15111); details: at 1 µM
T1 sequence (whole entry): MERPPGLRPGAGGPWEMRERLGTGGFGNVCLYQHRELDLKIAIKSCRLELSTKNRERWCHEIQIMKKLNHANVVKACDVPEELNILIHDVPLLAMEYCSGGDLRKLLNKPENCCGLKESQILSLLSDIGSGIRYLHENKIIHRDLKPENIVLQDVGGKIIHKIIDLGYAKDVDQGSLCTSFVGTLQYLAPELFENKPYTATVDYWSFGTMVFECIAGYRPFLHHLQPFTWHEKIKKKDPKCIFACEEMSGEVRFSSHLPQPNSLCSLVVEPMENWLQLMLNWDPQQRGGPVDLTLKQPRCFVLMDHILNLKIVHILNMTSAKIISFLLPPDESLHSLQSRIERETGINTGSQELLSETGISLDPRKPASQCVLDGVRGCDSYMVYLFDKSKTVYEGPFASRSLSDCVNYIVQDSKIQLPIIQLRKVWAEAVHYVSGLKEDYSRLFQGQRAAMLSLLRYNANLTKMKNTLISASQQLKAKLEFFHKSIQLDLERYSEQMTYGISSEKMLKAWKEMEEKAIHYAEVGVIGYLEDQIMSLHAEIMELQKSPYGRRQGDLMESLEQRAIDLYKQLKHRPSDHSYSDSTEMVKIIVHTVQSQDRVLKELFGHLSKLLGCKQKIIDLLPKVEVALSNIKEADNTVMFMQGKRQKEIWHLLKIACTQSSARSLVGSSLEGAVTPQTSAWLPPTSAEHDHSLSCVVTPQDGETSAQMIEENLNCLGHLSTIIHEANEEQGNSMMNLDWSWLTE

[2] = target: T2, Inhibitor of nuclear factor kappa-B kinase subunit beta (Homo sapiens) (UniProt O14920); details: at 1 µM
T2 sequence (whole entry): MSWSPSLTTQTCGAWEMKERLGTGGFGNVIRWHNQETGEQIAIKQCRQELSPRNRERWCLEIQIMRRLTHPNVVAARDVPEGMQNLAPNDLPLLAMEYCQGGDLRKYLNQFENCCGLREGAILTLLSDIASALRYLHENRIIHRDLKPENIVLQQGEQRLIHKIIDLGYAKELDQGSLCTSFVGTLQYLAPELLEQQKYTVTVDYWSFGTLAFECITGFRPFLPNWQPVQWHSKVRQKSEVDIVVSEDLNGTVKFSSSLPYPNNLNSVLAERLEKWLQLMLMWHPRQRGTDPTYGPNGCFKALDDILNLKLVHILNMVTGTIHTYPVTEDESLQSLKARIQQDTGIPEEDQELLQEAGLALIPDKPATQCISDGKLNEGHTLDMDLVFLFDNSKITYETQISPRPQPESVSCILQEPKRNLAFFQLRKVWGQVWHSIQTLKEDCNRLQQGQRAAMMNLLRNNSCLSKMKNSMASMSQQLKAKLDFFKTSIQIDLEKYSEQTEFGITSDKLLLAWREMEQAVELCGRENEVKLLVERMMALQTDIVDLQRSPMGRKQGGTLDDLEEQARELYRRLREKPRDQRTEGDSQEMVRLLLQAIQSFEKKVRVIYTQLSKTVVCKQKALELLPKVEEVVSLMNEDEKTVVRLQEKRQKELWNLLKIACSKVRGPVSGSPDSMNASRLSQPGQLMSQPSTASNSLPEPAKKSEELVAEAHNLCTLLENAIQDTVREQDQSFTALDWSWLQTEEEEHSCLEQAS

| inhibition [1] | inhibition [2] | Compound |
| --- | --- | --- |
| 2% | -3% and -6% | COc1cccc(-c2c[nH]c3c(N/N=C/c4ccncc4)ncnc23)c1 |
| 24% | -5% and -4% | CCn1c(-c2nonc2N)nc2ccccc21 |
| 2% and 0% | -1% and 0% | COc1cc2ncn(-c3cc(OCc4ccccc4C(F)(F)F)c(C(N)=O)s3)c2cc1OC |
| 5% | -6% and -8% | Cc1ccc(O)cc1Nc1ccnc2ccc(S(C)(=O)=O)cc12 |
| 16% and 2% | -5% and -4% | O=C1Nc2ccc(-c3cccnc3)cc2C1=Cc1cc(Br)c(O)c(Br)c1 |
| -2% | -4% | CCC(=O)Nc1ccc(C)c(-c2ccc(C(=O)NCC3CC3)cc2)c1 |
| -1% and 0% | -3% and -2% | NS(=O)(=O)c1ccc(Nc2cc(-c3cccc(O)c3)n[nH]2)cc1 |

The remaining lines, values behind:

| Compound | inhibition [1] | inhibition [2] |
| --- | --- | --- |
| Cn1cc(C=C2C(=O)Nc3cccnc32)c2ccccc21 | 15% | -5% and 0% |
| Cc1ccc(O)cc1Nc1ccnc2cc(-c3ccccn3)ccc12 | 6% and 4% | 0% and -5% |
| COc1cc2ncnc(Nc3ccc4c(cnn4Cc4ccccc4)c3)c2cc1OC | 2% and -2% | 5% and -4% |
| CC(=O)Nc1cccc(C#Cc2cncnc2Nc2ccc(OCc3cccc(F)c3)c(Cl)c2)n1 | 2% | -4% and -2% |
| NCc1ccc(-c2nc(-c3ccc(Cl)c(O)c3)c(-c3ccncc3)[nH]2)cc1 | -3% and -4% | 2% |
| O=C1Nc2ccccc2/C1=C/Nc1ccc2[nH]c(=O)[nH]c2c1 | 1% | -5% and -3% |
| COc1ccc(-c2nn3ncccc3c2-c2ccnc(Nc3ccc4c(c3)OCCO4)n2)cc1 | 1% | -4% |
| Cc1cc(-c2ccco2)cc(C)c1/C=C/c1cncc(-c2nn[nH]n2)c1 | -4% and -2% | -1% and -3% |
| OCCCNc1nccc(-c2c(-c3ccc(F)cc3)nn3cc(C(F)(F)F)ccc23)n1 | 2% | -4% and -5% |
| CS(=O)(=O)CCN(CC#N)Cc1ccc(-c2ccc3ncnc(Nc4ccc(OCc5cccc(F)c5)c(Cl)c4)c3c2)o1 | 1% | -2% and -1% |
| COc1cc(Nc2ncc(-c3ccccc3)o2)cc(OC)c1 | 1% | 0% and -4% |
| CCc1cccc(NC(=O)Nc2ccc(Oc3ccc4nc(NC(=O)OC)[nH]c4c3)cc2)c1 | -10% | 0% and 6% |
| CC(C)=Cc1cccc2c1/C(=N/Nc1ccc(S(N)(=O)=O)cc1)C(=O)N2 | -2% and 1% | -1% and 0% |
| NC(=O)c1sc(-n2cnc3cc(C(F)(F)F)ccc32)cc1OCc1ccccc1Br | 1% and 3% | -4% and -3% |
| COc1cc(N2CCN(C(C)C)CC2)ccc1Nc1nc(Nc2ccc(F)cc2C(=O)NC[C@@H](O)CO)c2cc[nH]c2n1 | 2% and 3% | -1% and -2% |
| Nc1nccc(C#Cc2cncnc2Nc2ccc(OCc3cccc(F)c3)c(Cl)c2)n1 | 2% and 0% | -6% and -7% |
| O=C(Nc1n[nH]c2cc(-c3ccccc3)ccc12)C1CC1 | 9% and -2% | -2% and -6% |
